Literature values as cited in patent US20220039380A1, “PEST CONTROL INCLUDING COMBINED MATING DISRUPTION AND TRAPPING” (Trécé Inc., priority 2019, published 2022).
Read-outs that look alike come from different tables or passages of the source.

Key:
[1] = tested on: Codling Moth (CM) Cydia pomonella; conditions: kairomone attractants without pheromone, field demonstrated, Male Lures
[2] = tested on: Oriental Fruit Moth (OFM) Grapholita molesta; conditions: for % increase in Male capture above pheromone alone: pheromone synergists, field demonstrated
[3] = tested on: Peach Twig Borer (PTB) Anarsia lineatella; conditions: pheromone synergists, field demonstrated
[4] = tested on: Corn Earworm (CEW) Helocoverpa zea; conditions: for % increase in Male capture above pheromone alone: pheromone synergists, field demonstrated
[5] = tested on: Codling Moth (CM) Cydia pomonella; conditions: pheromone synergists, suggested (lab flight tunnel demonstrated)
[6] = tested on: Cabbage Looper (CL) Tricoplusia ni; conditions: pheromone synergists, field demonstrated
[7] = tested on: Codling Moth (CM) Cydia pomonella; conditions: pheromone synergists, proven (field demonstrated)
[8] = tested on: Beet Armyworm (BAW) Spodoptera exigua; conditions: pheromone synergists, field demonstrated
[9] = tested on: Beet Armyworm (BAW) Spodoptera exigua; conditions: Field & Flight Tunnel
[10] = tested on: Omnivorous Leafroller (OLR) Platynota stultana; conditions: pheromone synergists, field demonstrated
[11] = tested on: Tobacco Budworm (TBW) Heliothis virescens; conditions: pheromone synergists, field demonstrated
[12] = tested on: Codling Moth (CM) Cydia pomonella; conditions: for HPVs Reduce/Inhibit Pear Ester Attraction: Females Attraction: codling moth females
[13] = codling moth, added to Ethyl (2,4)(E,Z) decadienoate

## C=C/C=C(\C)CCC=C(C)C
[1]
  Male lure attraction (in words): dimethyl nonatriene (less females)
[2]
  % increase in Male capture above pheromone alone: dimethyl nonatriene (427%)
[3]
  % increase in Male capture above pheromone alone: dimethyl nonatriene (134%)
[4]
  % increase in Male capture above pheromone alone: dimethyl nonatriene (357%)

## C=CC(C)(O)CCC=C(C)C (racemic) [(±) linalool]
[5]
  Pheromone synergism: (±) linalool (162%)

## CCC(C)C=NO (centres unmarked) [2-methyl butanal oxime]
[4]
  % increase in Male capture above pheromone alone: 2-methyl butanal oxime (196%)
[6]
  % increase in Male capture above pheromone alone: 2-methyl butanal oxime (196%)

## OCCc1ccccc1 [2-phenylethanol]
[6]
  % increase in Male capture above pheromone alone: 2-phenylethanol (131%)

## CC(C)CCO [3-methyl butanol]
[7]
  % increase in Male capture above pheromone alone: 3-methyl butanol (184%)

## CCC/C=C/C=O [(E)-2-hexenal]
[4]
  % increase in Male capture above pheromone alone: (E)-2-hexenal (176%)
[8]
  % increase in Male capture above pheromone alone: (E)-2-hexenal (123%)
[9]
  % increase in Male capture above pheromone alone: (E)-2-hexenal (139%)

## CCC/C=C/CO [(E)-2-hexenol]
[10]
  Pheromone synergism: (E)-2-hexenol (204%)
[3]
  % increase in Male capture above pheromone alone: (E)-2-hexenol (131%)
[6]
  % increase in Male capture above pheromone alone: (E)-2-hexenol (112%)

## CCC/C=C/COC(C)=O [(E)-2-hexenyl acetate]
[2]
  % increase in Male capture above pheromone alone: (E)-2-hexenyl acetate (210%)
[4]
  % increase in Male capture above pheromone alone: (E)-2-hexenyl acetate (190%)
[11]
  % increase in Male capture above pheromone alone: (E)-2-hexenyl acetate (183%)

## C=C1CC/C=C(\C)CC[C@@H]2[C@@H]1CC2(C)C [(E)-beta-caryophyllene]
[2]
  % increase in Male capture above pheromone alone: (E)-beta-caryophyllene (147%)
[4]
  % increase in Male capture above pheromone alone: (E)-beta-caryophyllene (344%)

## C=C/C(C)=C/CC=C(C)C [(E)-beta-ocimene]
[7]
  % increase in Male capture above pheromone alone: (E)-beta-ocimene (170%)
[4]
  % increase in Male capture above pheromone alone: (E)-beta-ocimene (141%)

## C=CC(C)(O)CC/C=C(\C)CCC=C(C)C (centres unmarked) [(E)-nerolidol]
[4]
  % increase in Male capture above pheromone alone: (E)-nerolidol (193%)

## C=C/C(C)=C/C/C=C(\C)CCC=C(C)C [(E,E)-alpha-farnesene]
[12]; [13]
  HPVs Reduce/Inhibit Pear Ester Attraction: (E,E)-alpha-farnesene (−68%)
[3]
  % increase in Male capture above pheromone alone: (E,E)-alpha-farnesene (144%)

## CC1=CC[C@@H]2C[C@H]1C2(C)C [(R)-(+)-alpha-pinene]
[4]
  % increase in Male capture above pheromone alone: (R)-(+)-alpha-pinene (348%)

## CC1=CC[C@H]2C[C@@H]1C2(C)C [(S)-(−)-alpha-pinene]
[4]
  % increase in Male capture above pheromone alone: (S)-(−)-alpha-pinene (215%)

## CC/C=C\CCO [(Z)-3-hexenol]
[10]
  Pheromone synergism: (Z)-3-hexenol (193%)
[3]
  % increase in Male capture above pheromone alone: (Z)-3-hexenol (117%)
[4]
  % increase in Male capture above pheromone alone: (Z)-3-hexenol (128%)
[6]
  % increase in Male capture above pheromone alone: (Z)-3-hexenol (152%)
[9]
  % increase in Male capture above pheromone alone: (Z)-3-hexenol (121%)

## CC/C=C\CCOC(C)=O [(Z)-3-hexenyl acetate]
[5]
  Pheromone synergism: (Z)-3-hexenyl acetate (151%)
[12]; [13]
  HPVs Enhance Pear Ester Attraction (in words): (Z)-3-hexenyl acetate (additive)
[2]
  % increase in Male capture above pheromone alone: (Z)-3-hexenyl acetate (258%)
[3]
  % increase in Male capture above pheromone alone: (Z)-3-hexenyl acetate (143%)
[11]
  % increase in Male capture above pheromone alone: (Z)-3-hexenyl acetate (217%)
[9]
  % increase in Male capture above pheromone alone: (Z)-3-hexenyl acetate (125%)

## C=C/C(C)=C/C/C=C(/C)CCC=C(C)C [(Z,E)-alpha-farnesene]
[12]
  HPVs Reduce/Inhibit Pear Ester Attraction: Females Attraction: (Z,E)-alpha-farnesene (−87%)

## CC(C)=CCC[C@]1(C)[C@H]2CC=C(C)[C@@H]1C2 [alpha-(E)-bergamotene]
[4]
  % increase in Male capture above pheromone alone: alpha-(E)-bergamotene (285%)

## CC1=CC[C@H](C(C)C)C=C1 [alpha-phellandrene]
[4]
  % increase in Male capture above pheromone alone: alpha-phellandrene (152%)

## O=Cc1ccccc1 [benzaldehyde]
[2]
  Pheromone Antagonists: benzaldehyde (68%)

## C=C1C=CC(C(C)C)CC1 (stereo not drawn) [beta-phellandrene]
[4]
  % increase in Male capture above pheromone alone: beta-phellandrene (342%)

## CCCCCC(=O)OCCCC [butyl hexanoate]
[12]; [13]
  HPVs Reduce/Inhibit Pear Ester Attraction: butyl hexanoate (−45%)

## CC(C)=CCCC(C)=CCCC(C)=CCO [farnesol]
[12]; [13]
  HPVs Reduce/Inhibit Pear Ester Attraction: farnesol (−56%)

## CC1=CCC(C(C)C)=CC1 [gamma-terpinene]
[7]
  % increase in Male capture above pheromone alone: gamma-terpinene (131%)

## CCCCCC(C)O (centres unmarked) [heptan-2-ol]
[4]
  % increase in Male capture above pheromone alone: heptan-2-ol (283%)

## CCCCCC=O [hexanal]
[4]
  % increase in Male capture above pheromone alone: hexanal (237%)
[8]
  % increase in Male capture above pheromone alone: hexanal (107%)

## CCCCCCO [hexanol]
[6]
  % increase in Male capture above pheromone alone: hexanol (132%)

## CCCCCCOC(C)=O [hexyl acetate]
[2]
  % increase in Male capture above pheromone alone: hexyl acetate (159%)
[4]
  % increase in Male capture above pheromone alone: hexyl acetate (176%)

## C/C1=C\CC/C(C)=C/CC(C)(C)/C=C/C1 [humulene]
[4]
  % increase in Male capture above pheromone alone: humulene (220%)

## C=C(C)[C@H]1CC=C(C)CC1 [limonene]
[3]
  % increase in Male capture above pheromone alone: limonene (132%)
[4]
  % increase in Male capture above pheromone alone: limonene (150%)

## CC/C=C\CC1C(=O)CCC1CC(=O)OC (centres unmarked) [methyl jasmonate]
[4]
  % increase in Male capture above pheromone alone: methyl jasmonate (255%)

## CCCCCCCC(=O)OC [methyl octanoate]
[3]
  % increase in Male capture above pheromone alone: methyl octanoate (172%)

## COC(=O)c1ccccc1O [methyl salicylate]
[4]
  % increase in Male capture above pheromone alone: methyl salicylate (172%)

## C=CC(=C)CCC=C(C)C [myrcene]
[7]
  % increase in Male capture above pheromone alone: myrcene (190%)

## CCCCCCCCC=O [nonanal]
[12]
  HPVs Reduce/Inhibit Pear Ester Attraction: Females Attraction: nonanal (−95%)
[4]
  % increase in Male capture above pheromone alone: nonanal (219%)

## Cc1ccc(C(C)C)cc1 [para-cymene]
[7]
  % increase in Male capture above pheromone alone: para-cymene (187%)

## O=CCc1ccccc1 [phenyl acetaldehyde]
[4]
  Blossom Volatiles, Gaura Volatiles, repeated below the heading Pheromone Antagonists: phenyl acetaldehyde (216%)
  % increase in Male capture above pheromone alone: phenyl acetaldehyde (216%)
[6]
  % increase in Male capture above pheromone alone: phenyl acetaldehyde (188%)
[9]
  % increase in Male capture above pheromone alone: phenylacetaldehyde (135%)

## CC1=CCC(O)(C(C)C)CC1 (centres unmarked) [terpinen-4-ol]
[7]
  % increase in Male capture above pheromone alone: terpinen-4-ol (206%)

## butanol
[7]
  % increase in Male capture above pheromone alone: butanol (202%)
